Measured values: patent US20250170131A1, “METHOD FOR THE TREATMENT OF ANTERIOR ISCHEMIC OPTIC NEUROPATHY” (Nicox SA, priority 2022, published 2025)
Entries after “also recorded” stand apart in the source; their conditions may differ.

Legend:
[1] = system: endothelin-1 (ET-1)-induced ischemia/reperfusion injury of optic nerve head and retina; test: OA-RI by Echo-Color-Doppler, Compound (I) vs des-nitro Compound (Ia) (Example 2); assay type: in vivo, rabbits; conditions: for OA-RI, ET-1 + treatment Week 3 / OA-RI, ET-1 + treatment Week 4 / OA-RI, ET-1 + treatment Week 5 / OA-RI, ET-1 + treatment Week 6: Cpd (I) 1.0% / Cpd (Ia) 0.93% (equimolar), topical twice daily from week 3; for OA-RI, ET-1 (1st dose) Week 2: ET-1 only, before treatment; for Effect on OA-RI / ocular perfusion (in words): ET-1 rabbit model, equimolar doses, weeks 3-6; for OA-RI, Baseline Week 0: before ET-1 and treatment
Experimental: This study evaluated the ocular hemodynamic effects of repeated topical ocular dosing of Compound (I) in comparison to its des-nitro derivative Compound (Ia) administered at equimolar doses in rabbits with endothelin-1 (ET-1)-induced ischemia/reperfusion injury of optic nerve head and retina. Method: ET-1 was injected next to the optic nerve head twice/week for 6 weeks. Animals received Compound (I) (1% twice daily, 6 days/week), Compound (Ia) (0.93%, equimolar to 1% Compound (I)) or vehicle from week 3 until the end of ET-1 treatment. Functional endpoint was ophthalmic artery resistive index (OA-RI) determined using an Echo-Color-Doppler.

[2] = system: ischemia/reperfusion injury of the optic nerve induced by the subtenon injection of endothelin-1 (ET-1) in rabbits; test: Ophthalmic artery resistive index (OA-RI) by Echo Color Doppler, ET-1 ischemia/reperfusion model (Example 1); assay type: in vivo, New Zealand white (NZW) rabbits; conditions: for Ophthalmic artery resistive index (OA-RI), Baseline: prior to ET-1 dosing (time 0), before test item; for OA-RI, ET-1 (4-weeks) + Test items (2 weeks daily bid): week 4; for OA-RI, ET-1 (4-weeks) + Test items (2 weeks daily bid) / OA-RI, ET-1 (6 weeks) + Test items (4 weeks daily bid): 1% w/w, 30 microL/eye topical twice daily; for OA-RI, ET-1 (6 weeks) + Test items (4 weeks daily bid): week 6
Experimental: (§1) These experiments were performed to determine the effects of [(2S)-1-(4-{[(3-chloro-4-methoxyphenyl)methyl]amino}-5-{[(pyrimidin-2yl)methyl]carbamoyl}pyrimidin-2-yl)pyrrolidin-2-yl]methyl 6-(nitrooxy)hexanoate (Compound (I)) on ocular vascular reactivity and retinal function after ocular topical dosing in a model of ischemia/reperfusion injury of the optic nerve induced by the subtenon injection of endothelin-1 (ET-1) in rabbits.
(§2) Adult male New Zealand white (NZW) rabbits weighting 1.5-2.0 kg were used. All animals received a single 30 microL/eye topical dose of Compound (I) (1% w/w) or vehicle (Kolliphor® EL 5.0% w/w, Myrj™ S40 3.0% w/w, Kollisolv® PEG400 2.8% w/w, H3BO3 0.19% w/w, Na2HPO4·7H2O 0.51% w/w, EDTA 0.10% w/w, BAK 0.01% w/w, HCl 0.5N q.s. pH 6.6, purified water q.s. 100 g) twice daily for 4 consecutive weeks starting 2 weeks after Endothelin-1 (ET-1) first dosing.
(§3) Ischemia/reperfusion injury was induced in each animal by subtenon injection (twice/week for 6 weeks) of 200 microL of 250 nM ET-1 dissolved in water using a lacrimal cannula under anaesthesia produced by ketamine and xylazine injected intramuscularly.
Ophthalmic Artery Resistive Index (OA-RI) measurements were taken using an Echo Color Doppler prior to ET-1 treatment (baseline, time 0), and weekly thereafter till the end of the study. Pourcelot resistive index for ophthalmic artery (OA-RI) was calculated using the following formula: (OA-PSV−OA-EDV)/OA-PSV where OA-PSV and OA-EDV refer to Ophthalmic Artery Peak Systolic Velocity and Ophthalmic Artery End Diastolic Velocity, respectively.
(§4) Measurements were taken prior to ET-1 first dose (baseline, time 0), then at the end of week 2 (prior to vehicle- or Compound (I) first day-first dose) and at the end of week 6.

[3] = system: ischemia/reperfusion injury of the optic nerve induced by the subtenon injection of endothelin-1 (ET-1) in rabbits; test: Electroretinogram (ERG) recording, ET-1 ischemia/reperfusion model (Example 1); assay type: in vivo, New Zealand white (NZW) rabbits
Experimental: as §1, §2, §3
Electroretinogram (ERGs) recording took place under topical anaesthesia. The eyes were also dilated by topical application of tropicamide 1% and, when needed, adapted to darkness for at least 2 hours prior to ERGs recording. ERGs recording were performed with standard contact lens corneal electrodes. Specifically, the dark-adapted 0.01 ERG (mostly rod response), dark-adapted 3.0 ERG (combined rod/cone response) and, light-adapted 3.0 (mostly cone response) were recorded.
as §4

[4] = system: blood flow nearby the optic nerve head and choroid; conditions: systemic dosing; British J Ophthalmology 83 (1999); cited from earlier work

Row | SMILES | OA-RI, ET-1 + treatment Week 3 [1] | OA-RI, ET-1 + treatment Week 4 [1] | OA-RI, ET-1 + treatment Week 5 [1] | OA-RI, ET-1 + treatment Week 6 [1] | OA-RI, ET-1 (1st dose) Week 2 [1] | Effect on OA-RI / ocular perfusion (in words) [1] | OA-RI, Baseline Week 0 [1] | Effect on OA-RI (in words) ([2]; ET-1 rabbit model, topical dosing) | OA-RI, ET-1 (2 weeks) ([2]; after 2 weeks ET-1 twice weekly, before first dose of test item, mean±SD) | Ophthalmic artery resistive index (OA-RI), Baseline ([2]; mean±SD) | Ophthalmic artery resistive index (OA-RI), Baseline ([2]; mean±SD, listed as Cpd (I)) | OA-RI, ET-1 (4-weeks) + Test items (2 weeks daily bid) ([2]; mean±SD) | OA-RI, ET-1 (4-weeks) + Test items (2 weeks daily bid) ([2]; mean±SD, listed as Cpd (I)) | OA-RI, ET-1 (6 weeks) + Test items (4 weeks daily bid) ([2]; mean±SD) | OA-RI, ET-1 (6 weeks) + Test items (4 weeks daily bid) ([2]; mean±SD, listed as Cpd (I)) | Effect on retinal function / ERG (in words) ([3]; ET-1 rabbit model, 4 weeks topical dosing) | ERG Amplitude, ET-1 (6 weeks) + Test items (4 weeks daily bid) ([3]; Light adapted 3.0 (Rod/cone response), 1% w/w, 30 microL/eye topical bid, ± S.D.) [μV] | ERG Amplitude, ET-1 (2 weeks) ([3]; Light adapted 3.0 (Rod/cone response), before first dose of test item, ± S.D.) [μV] | ERG Amplitude, Baseline ([3]; Light adapted 3.0 (Rod/cone response), prior to ET-1, ± S.D.) [μV] | Effect on ocular blood flow (in words) [4]
1 | COc1ccc(CNc2nc(N3CCC[C@H]3COC(=O)CCCCCO[N+](=O)[O-])ncc2C(=O)NCc2ncccn2)cc1Cl [Compound (I), [(2S)-1-(4-{[(3-Chloro-4-methoxyphenyl)methyl]amino}-5-{[(pyrimidin-2-yl)methyl]carbamoyl}pyrimidin-2-yl)pyrrolidin-2-yl]methyl 6-(nitrooxy)hexanoate] | 0.41 ± 0.01 | 0.37 ± 0.03 | 0.37 ± 0.03 | 0.39 ± 0.03 | 0.46 ± 0.02 | restored baseline OA-RI by week 6; also recorded: ameliorates ocular perfusion | 0.34 ± 0.02 | reduced ophthalmic artery resistive index (OA-RI) | 0.48 ± 0.06 | 0.40±0.08 | 0.40 ± 0.08 | 0.43±0.09 | 0.43 ± 0.09 | 0.43±0.04 | 0.43 ± 0.04 | increased photoreceptor activity; also recorded: less impairment in the ERG wave amplitude than those treated with vehicle | 131.6 ± 46.4 | 100.5 ± 33.3 | 115.9 ± 30.0 | –
2 | COc1ccc(CNc2nc(N3CCC[C@H]3COC(=O)CCCCCO)ncc2C(=O)NCc2ncccn2)cc1Cl [Compound (Ia), [(2S)-1-(4-{[(3-Chloro-4-methoxyphenyl)methyl]amino}-5-{[(pyrimidin-2-yl)methyl]carbamoyl}pyrimidin-2-yl)pyrrolidin-2-yl]methyl 6-hydroxyhexanoate, reference compound] | 0.49 ± 0.00 | 0.47 ± 0.01 | 0.51+0.02 | 0.48 ± 0.07 | 0.51 ± 0.01 | not effective; also recorded: only resulted in minor activity | 0.34 ± 0.02 | – | – | – | – | – | – | – | – | – | – | – | – | –
3 | O=[N+]([O-])O[C@@H]1CO[C@H]2[C@@H]1OC[C@@H]2O [ISMN, isosorbide mononitrate] | – | – | – | – | – | – | – | – | – | – | – | – | – | – | – | – | – | – | – | increases blood flow nearby optic nerve head without changes to the choroidal compartment
